Patent publication US9353084B2, “2-amino 3,5,5-trifluoro-3,4,5,6-tetrahydropyridines as BACE1 inhibitors for treatment of Alzheimer's disease” (H. Lundbeck A/S, priority 2014, dated 2016)
pKi: −log10 of the molar value.

Target: human BACE1 (Homo sapiens (Human), UniProt P56817)
Assay: BACE1 binding assay (SPA-based, radioligand displacement)
Conditions: pH 4.5, Ki calculated from IC50
Procedure: The binding assay was performed as SPA-based assay using a biotinylated form of human BACE1 recombinantly expressed and subsequently purified from Freestyle HEK293 cells. The binding assay was run in a 50 mM sodium acetate buffer, pH 4.5 containing 50 mM NaCl and 0.03% Tween-20 in white clear bottom 384 plates (Corning #3653). 10 nM (final concentration) radioligand ([^3H]—N-((1S,2R)-1-benzyl-3-cyclopropylamino-2-hydroxy-propyl)-5-(methanesulfonyl-methyl-amino)-N—((R)-1-phenyl-ethyl)-isophthalamide) (TRQ11569 purchased from GE Healthcare) was mixed with test compound at a given concentration, 6 nM (final concentration) human BACE1 and 25 μg Streptavidin coated PVT core SPA beads (RPNQ0007, GE Healthcare Life Sciences) in a total volume of 40 μl. Several concentrations of each test compound were tested in the assay for IC50 determination. The plates were incubated for one hour at room temperature and counted in a Wallac Trilux counter. Total and non-specific binding were determined using buffer and 1 μM (final concentration) of the high affinity BACE1 reference inhibitor (S)-6-[3-chloro-5-(5-prop-1-ynyl-pyridin-3-yl)-thiophen-2-yl]-2-imino-3,6-dimethyl-tetrahydro-pyrimidin-4-one, respectively. For each test compound, a IC50 value (the concentration mediating 50% inhibition of the specific binding of the radioligand) was determined from concentration-response curve and used to calculate the Ki from the equation Ki=IC50/(1+L/Kd), where L and Kd are the final concentration of the radioligand used in the assay and the dissociation constant of the radioligand, respectively. The Kd of the radioligand was determined from saturation binding experiments.

Sequence of human BACE1 (P56817 46-501): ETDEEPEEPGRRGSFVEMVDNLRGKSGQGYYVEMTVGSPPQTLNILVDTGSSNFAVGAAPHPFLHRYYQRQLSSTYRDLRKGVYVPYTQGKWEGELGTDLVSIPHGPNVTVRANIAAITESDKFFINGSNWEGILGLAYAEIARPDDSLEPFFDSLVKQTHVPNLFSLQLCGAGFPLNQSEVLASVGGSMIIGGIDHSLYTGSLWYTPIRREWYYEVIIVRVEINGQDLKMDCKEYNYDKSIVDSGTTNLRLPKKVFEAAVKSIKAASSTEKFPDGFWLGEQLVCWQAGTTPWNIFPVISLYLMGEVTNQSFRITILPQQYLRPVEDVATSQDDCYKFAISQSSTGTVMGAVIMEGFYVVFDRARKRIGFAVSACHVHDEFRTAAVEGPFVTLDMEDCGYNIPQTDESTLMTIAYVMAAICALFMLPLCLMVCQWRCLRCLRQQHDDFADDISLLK

| Structure (SMILES) | pKi |
| --- | --- |
| Cn1cc(Br)nc1C(=O)Nc1ccc(F)c([C@@]2(C)N=C(N)[C@@](C)(F)CC2(F)F)c1 [Compound 9, N-(3-((2R,5S)-6-amino-3,3,5-trifluoro-2,5-dimethyl-2,3,4,5-tetrahydropyridin-2-yl)-4-fluorophenyl)-4-bromo-1-methyl-1H-imidazole-2-carboxamide] | 7.00 |
| Cc1cn(C)c(C(=O)Nc2ccc(F)c([C@@]3(C)N=C(N)[C@](C)(F)CC3(F)F)c2)n1 [Compound 38, N-(3-((2R,5R)-6-amino-3,3,5-trifluoro-2,5-dimethyl-2,3,4,5-tetrahydropyridin-2-yl)-4-fluorophenyl)-1,4-dimethyl-1H-imidazole-2-carboxamide] | 6.00 |
| Cc1nc(C(=O)Nc2ccc(F)c([C@@]3(C)N=C(N)[C@@](C)(F)CC3(F)F)c2)c(C)o1 [Compound 47, N-(3-((2R,5S)-6-amino-3,3,5-trifluoro-2,5-dimethyl-2,3,4,5-tetrahydropyridin-2-yl)-4 fluorophenyl)-2,5-dimethyloxazole-4-carboxamide] | 7.19 |
| C[C@]1(F)CC(F)(F)[C@@](C)(c2cc(NC(=O)c3ccc(Cl)cn3)ccc2F)N=C1N [Compound 3, N-(3-((2R,5S)-6-amino-3,3,5-trifluoro-2,5-dimethyl-2,3,4,5-tetrahydropyridin-2-yl)-4-fluorophenyl)-5-chloropicolinamide] | 7.92 |
| Cc1nc(C(=O)Nc2ccc(F)c([C@@]3(C)N=C(N)[C@](C)(F)CC3(F)F)c2)co1 [Compound 34, N-(3-((2R,5R)-6-amino-3,3,5-trifluoro-2,5-dimethyl-2,3,4,5-tetrahydropyridin-2-yl)-4-fluorophenyl)-2-methyloxazole-4-carboxamide] | 6.68 |
| C[C@]1(F)CC(F)(F)[C@@](C)(c2cc(NC(=O)c3ccc(C(F)(F)F)cn3)ccc2F)N=C1N [Compound 11, N-(3-((2R,5S)-6-amino-3,3,5-trifluoro-2,5-dimethyl-2,3,4,5-tetrahydropyridin-2-yl)-4-fluorophenyl)-5-(trifluoromethyl)picolinamide] | 7.20 |
| C[C@@]1(F)CC(F)(F)[C@@](C)(c2cc(NC(=O)c3nc(CF)co3)ccc2F)N=C1N [Compound 30, N-(3-((2R,5R)-6-amino-3,3,5-trifluoro-2,5-dimethyl-2,3,4,5-tetrahydropyridin-2-yl)-4-fluorophenyl)-4-(fluoromethyl)oxazole-2-carboxamide] | 6.59 |
| COc1cnc(C(=O)Nc2ccc(F)c([C@@]3(C)N=C(N)[C@@](C)(F)CC3(F)F)c2)c(C)n1 [Compound 19, N-(3-((2R,5S)-6-amino-3,3,5-trifluoro-2,5-dimethyl-2,3,4,5-tetrahydropyridin-2-yl)-4-fluorophenyl)-5-methoxy-3-methylpyrazine-2-carboxamide] | 7.49 |
| Cn1cc(Br)nc1C(=O)Nc1ccc(F)c([C@@]2(C)N=C(N)[C@](C)(F)CC2(F)F)c1 [Compound 37, N-(3-((2R,5R)-6-amino-3,3,5-trifluoro-2,5-dimethyl-2,3,4,5-tetrahydropyridin-2-yl)-4-fluorophenyl)-4-bromo-1-methyl-1H-imidazole-2-carboxamide] | 6.38 |
| C[C@@]1(F)CC(F)(F)[C@@](C)(c2cc(NC(=O)c3ccc(F)cn3)ccc2F)N=C1N [Compound 2, N-(3-((2R,5R)-6-amino-3,3,5-trifluoro-2,5-dimethyl-2,3,4,5-tetrahydropyridin-2-yl)-4-fluorophenyl)-5-fluoropicolinamide] | 6.68 |
| C[C@]1(F)CC(F)(F)[C@@](C)(c2cc(NC(=O)c3nc(CF)cs3)ccc2F)N=C1N [Compound 15, N-(3-((2R,5S)-6-amino-3,3,5-trifluoro-2,5-dimethyl-2,3,4,5-tetrahydropyridin-2-yl)-4-fluorophenyl)-4-(fluoromethyl)thiazole-2-carboxamide] | 7.34 |
| Cc1noc(C(=O)Nc2ccc(F)c([C@@]3(C)N=C(N)[C@@](C)(F)CC3(F)F)c2)n1 [Compound 21, N-(3-((2R,5S)-6-amino-3,3,5-trifluoro-2,5-dimethyl-2,3,4,5-tetrahydropyridin-2-yl)-4-fluorophenyl)-3-methyl-1,2,4-oxadiazole-5-carboxamide] | 7.24 |
| C[C@@]1(F)CC(F)(F)[C@@](C)(c2cc(NC(=O)c3ccc(Cl)cc3)ccc2F)N=C1N [Compound 44, N-(3-((2R,5R)-6-amino-3,3,5-trifluoro-2,5-dimethyl-2,3,4,5-tetrahydropyridin-2-yl)-4-fluorophenyl)-4-chlorobenzamide] | 6.13 |
| C[C@]1(F)CC(F)(F)[C@@](C)(c2cc(NC(=O)c3ccc(OC(F)F)cn3)ccc2F)N=C1N [Compound 45, N-(3-((2R,5S)-6-amino-3,3,5-trifluoro-2,5-dimethyl-2,3,4,5-tetrahydropyridin-2-yl)-4-fluorophenyl)-5-(difluoromethoxy)picolinamide] | 7.85 |
| C[C@@]1(F)CC(F)(F)[C@@](C)(c2cc(NC(=O)c3nccs3)ccc2F)N=C1N [Compound 36, N-(3-((2R,5R)-6-amino-3,3,5-trifluoro-2,5-dimethyl-2,3,4,5-tetrahydropyridin-2-yl)-4-fluorophenyl)thiazole-2-carboxamide] | 6.41 |
| [2H]C([2H])([2H])Oc1ccc(C(=O)Nc2ccc(F)c([C@@]3(C)N=C(N)[C@](C)(F)CC3(F)F)c2)nc1 [Compound 43, N-(3-((2R,5R)-6-amino-3,3,5-trifluoro-2,5-dimethyl-2,3,4,5-tetrahydropyridin-2-yl)-4-fluorophenyl)-5-(methoxy-d3)picolinamide] | 7.04 |
| COc1cnc(C(=O)Nc2ccc(F)c([C@@]3(C)N=C(N)[C@](C)(F)CC3(F)F)c2)cn1 [Compound 25, N-(3-((2R,5R)-6-amino-3,3,5-trifluoro-2,5-dimethyl-2,3,4,5-tetrahydropyridin-2-yl)-4-fluorophenyl)-5-methoxypyrazine-2-carboxamide] | 6.89 |
| C[C@]1(F)CC(F)(F)[C@@](C)(c2cc(NC(=O)c3ccc(C#N)cn3)ccc2F)N=C1N [Compound 4, N-(3-((2R,5S)-6-amino-3,3,5-trifluoro-2,5-dimethyl-2,3,4,5-tetrahydropyridin-2-yl)-4-fluorophenyl)-5-cyanopicolinamide] | 7.96 |
| Cn1ccc(C(=O)Nc2ccc(F)c([C@@]3(C)N=C(N)[C@](C)(F)CC3(F)F)c2)n1 [Compound 39, N-(3-((2R,5R)-6-amino-3,3,5-trifluoro-2,5-dimethyl-2,3,4,5-tetrahydropyridin-2-yl)-4-fluorophenyl)-1-methyl-1H-pyrazole-3-carboxamide] | 5.32 |
| Cc1cc(F)cnc1C(=O)Nc1ccc(F)c([C@@]2(C)N=C(N)[C@@](C)(F)CC2(F)F)c1 [Compound 49, N-(3-((2R,5S)-6-amino-3,3,5-trifluoro-2,5-dimethyl-2,3,4,5-tetrahydropyridin-2-yl)-4-fluorophenyl)-5-fluoro-3-methylpicolinamide] | 7.22 |
| [2H]C([2H])([2H])Oc1ccc(C(=O)Nc2ccc(F)c([C@@]3(C)N=C(N)[C@@](C)(F)CC3(F)F)c2)nc1 [Compound 48] | 7.85 |
| C[C@@]1(F)CC(F)(F)[C@@](C)(c2cc(NC(=O)c3ccc(Cl)cn3)ccc2F)N=C1N [Compound 33, N-(3-((2R,5R)-6-amino-3,3,5-trifluoro-2,5-dimethyl-2,3,4,5-tetrahydropyridin-2-yl)-4-fluorophenyl)-5-chloropicolinamide] | 7.21 |
| C[C@]1(F)CC(F)(F)[C@@](C)(c2cc(NC(=O)c3ccn(C(F)F)n3)ccc2F)N=C1N [Compound 6, N-(3-((2R,5S)-6-amino-3,3,5-trifluoro-2,5-dimethyl-2,3,4,5-tetrahydropyridin-2-yl)-4-fluorophenyl)-1-(difluoromethyl)-1H-pyrazole-3-carboxamide] | 7.72 |
| Cc1ccc(C(=O)Nc2ccc(F)c([C@@]3(C)N=C(N)[C@](C)(F)CC3(F)F)c2)o1 [Compound 41, N-(3-((2R,5R)-6-amino-3,3,5-trifluoro-2,5-dimethyl-2,3,4,5-tetrahydropyridin-2-yl)-4-fluorophenyl)-5-methylfuran-2-carboxamide] | 6.28 |
| Cc1cc(C(=O)Nc2ccc(F)c([C@@]3(C)N=C(N)[C@](C)(F)CC3(F)F)c2)on1 [Compound 40, N-(3-((2R,5R)-6-amino-3,3,5-trifluoro-2,5-dimethyl-2,3,4,5-tetrahydropyridin-2-yl)-4-fluorophenyl)-3-methylisoxazole-5-carboxamide] | 5.09 |
| C[C@@]1(F)CC(F)(F)[C@@](C)(c2cc(NC(=O)c3ccn(C(F)F)n3)ccc2F)N=C1N [Compound 23, N-(3-((2R,5R)-6-amino-3,3,5-trifluoro-2,5-dimethyl-2,3,4,5-tetrahydropyridin-2-yl)-4-fluorophenyl)-1-(difluoromethyl)-1H-pyrazole-3-carboxamide] | 7.15 |
| C[C@]1(F)CC(F)(F)[C@@](C)(c2cc(NC(=O)c3nccs3)ccc2F)N=C1N [Compound 8, N-(3-((2R,5S)-6-amino-3,3,5-trifluoro-2,5-dimethyl-2,3,4,5-tetrahydropyridin-2-yl)-4-fluorophenyl) thiazole-2-carboxamide] | 7.18 |
